Read-outs that look alike come from different tables or passages of the source.
Assays:
[1] = system: area of infarction following coronary occlusion; conditions: dogs; cited from earlier work
psoriasis = conditions: in vivo; cited from earlier work
lipoxygenase = conditions: in vitro; cited from earlier work
[2] = system: Arachidonic Acid-Induced Inflammation of the Mouse Ear; experiment: Arachidonic acid-induced mouse ear inflammation; assay type: in vivo, mouse (male Balb/c); conditions: for inhibition in vivo at 50 mg/kg: Mus musculus, 1 h, Table 7A, read-out: % Inhibition of Ear Swelling
Text: (§1) In the following Examples where mice were used, they were male Balb/c mice (20-28 g), and where rats were used, they were male Lewis rats (180-210 g). All mice and rats were obtained from Charles River Breeding Laboratories, Kingston, N.Y. Within a single experiment, mice and rats were sex and age matched.
(§2) The compounds of Formula (I) were used either as the free base or in the appropriate salt form. Levamisole was used as the hydrochloride salt. The compounds were homogenized in 0.5% tragacanth. Compounds were administered by gavage at the indicated dose in a final volume of 10 ml/kg. Nordihydroguaiaretic acid (NDGA) was solubilized in dimethylacetamide and diluted with olive oil for subcutaneous administration.
Arachidonic acid in acetone ([…]) was applied to the inner surface of the left ear. The thickness of both ears was then measured with a dial micrometer one hour after treatment, and the data were expressed as the change in thickness (10^-3 cm) between treated and untreated ears.
Test compounds were given orally in 0.5% tragacanth at the times indicated in the text prior to the topical application of arachidonic acid.
Parenteral administration of compound was accomplished by subcutaneous injection of solution as indicated.

[3] = system: 5-lipoxygenase and LTA4 synthetase; experiment: Di-HETE / LTB4 production by high speed supernatant of RBL-1 cells; assay type: biochemical; conditions: RBL-1 high speed supernatant; Table 9A; read-out: 5-LO IC50 (LTB4 production)
Procedure: (§3) For in vitro experiments, compounds were dissolved at appropriate concentrations in ethanol or DMSO (dimethylsulfoxide) (final concentration≤1.0%) and then diluted to final concentrations using the buffers indicated in the text.
(§4) The activities of these enzymes in extracts of RBL-1 cells were assayed using the method of Jakschik and Lee, Nature, 287, 51-52 (1980). RBL-1 cells were obtained from the American Type Culture Collection (#CRL 1378) and were grown at 37° C. (5% CO2 in air) in spinner culture in MEM supplemented with 10% heat inactivated fetal calf serum. Harvested cells were washed with 50 mM sodium phosphate buffer, pH 7.0, containing 1 mM EDTA and 0.1% gelatin, resuspended in fresh buffer (5×10^7 cells/ml) and disrupted by nitrogen cavitation using the Parr bomb at 750 psi for 10 min. The broken cell extract was then centrifuged at 10,000× g for 20 minutes (min) and the supernatant centrifuged at 100,000 xIg for 60 min. Aliquots (0.25 mls) of the supernatant were preincubated with or without drugs for 10 min, after which 10 μl CaCl2 (50 mM) was added and the reaction was initiated with 2.5 μl of 2.5 mM arachidonic acid-1-^14 C (final concentration was 25 μM; specific activity 20,000 dpm/nmole). After incubation for 3 min at 37° C., the reaction was terminated by addition of 2 volumes (0.5 ml) ice cold acetone and the sample was allowed to deproteinize on ice for 10 min prior to centrifugation at 1,000× g for 10 min. The deproteinized supernatant was adjusted to pH 3.5 with 2N formic acid and extracted with 2 volumes of ice cold ethyl acetate. The extracted samples were dried under argon, redissolved in ethyl acetate and applied to Whatman LK5D thin layer chromatography (TLC) plates which were developed using the A-9 solvent system [organic phase of ethyl acetate: 2,2,5-trimethylpentane:acetic acid: water (110:50:20:10)] described by Hamberg and Samuelsson, J. Biol. Chem., 241, 257-263 (1966). Arachidonic acid, 5-HETE, LTB4 and PGD2 were quantified with a Berthold LB 2832 autoscanner.
(§5) The 5-lipoxygenase and LTA4 synthetase activities were further studied under the following conditions. An additional centrifugation of the RBL-1 supernatant was run at 100,000× g for 60 min, to remove the particulate cyclooxygenase activity. Sample incubation was done under conditions similar to those described above, i.e., 2 mM CaCl2 and […] arachidonic acid-1-^14 C, however, with an incubation time of 5 min at 5° C. Under these conditions, only the 5-lipoxygenase pathway metabolites were detectable. The 5-HETE and di-HETEs were formed at a linear rate, and substantial amounts of the arachidonic acid-1-^14 C substrate were utilized.

[4] = system: LTC4 production by human monocytes; experiment: LTC4 production by human monocytes; assay type: cell-based; parameters: key to IC50, LTC4 production: NS = not significant; conditions: A23187-stimulated human monocytes; for IC50: Monocyte
Procedure: The compounds of Formula (I) were evaluated for their ability to inhibit the production of LTC4 by human monocytes according to the following assay. Human monocytes were prepared from whole blood supplied by the American Red Cross. The blood was fractinated by a two-step procedure employing sedimentation on Ficoll followed by sedimentation on Percoll. […] Non-adherent cells were removed by washing. […] When drugs were evaluated, they were added to the cells 30 minutes prior to the A23187. Supernatants were collected, […] by centrifugation and stored frozed at -20° C. until assay. The LTC4 content was determined by using a New England Nuclear Leukotriene C-4 (^3 H) RIA Kit as per instructions.

5-Lipoxygenase = target: T1, 5-Lipoxygenase (Rattus norvegicus, UniProt P12527); experiment: 5-HETE production by high speed supernatant of RBL-1 cells; assay type: biochemical; conditions: for IC50: RBL-1 high speed supernatant, Table 8A
T1 construct: The activities of these enzymes in extracts of RBL-1 cells were assayed; host or cells: RBL-1
T1 sequence (P12527 1-673): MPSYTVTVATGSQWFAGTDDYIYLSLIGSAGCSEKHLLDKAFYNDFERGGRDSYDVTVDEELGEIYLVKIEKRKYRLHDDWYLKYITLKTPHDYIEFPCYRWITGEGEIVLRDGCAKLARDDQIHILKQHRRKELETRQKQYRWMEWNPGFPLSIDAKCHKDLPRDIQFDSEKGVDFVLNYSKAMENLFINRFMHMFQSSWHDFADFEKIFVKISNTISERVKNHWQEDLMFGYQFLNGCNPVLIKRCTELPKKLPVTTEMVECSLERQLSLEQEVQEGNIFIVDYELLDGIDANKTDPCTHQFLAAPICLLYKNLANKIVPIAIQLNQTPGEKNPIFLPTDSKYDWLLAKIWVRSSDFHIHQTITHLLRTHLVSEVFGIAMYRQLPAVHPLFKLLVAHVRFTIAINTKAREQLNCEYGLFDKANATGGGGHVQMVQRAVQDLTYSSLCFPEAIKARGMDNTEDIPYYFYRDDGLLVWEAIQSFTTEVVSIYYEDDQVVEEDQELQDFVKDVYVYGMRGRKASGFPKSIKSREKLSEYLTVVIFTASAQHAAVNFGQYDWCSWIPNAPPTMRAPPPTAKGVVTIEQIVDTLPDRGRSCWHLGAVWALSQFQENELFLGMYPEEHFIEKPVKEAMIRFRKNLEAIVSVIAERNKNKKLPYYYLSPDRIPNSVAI
Procedure: as §3, §4, §5

[5] = system: Infiltration of Polymorphonuclear Leukocytes into Sites of Carrageenan-Induced Inflammation; experiment: Mouse carrageenan peritonitis (PMN infiltration); assay type: in vivo, mouse (male Balb/c); conditions: carrageenan peritonitis, mice
Text: as §1, §2
Mice were pretreated with either the test compound or vehicle one hour before the intraperitoneal injection of a 1.0% carrageenan suspension in saline (0.2 ml/mouse). Mice were sacrificed by cervical dislocation two hours after injection, and 3.0 ml of phosphate buffered saline, without Ca^++ or Mg^++, was injected into the peritoneum. Following massage, a 2.0 ml aliquot of the lavage fluid was removed, and the total cell count determined on a Coulter counter and differential cell count determined by microscopic examination of Giesma-stained slides.

[6] = system: Experimental Allergic Encephalomyelitis Induced in Female Lewis Rats; experiment: Experimental allergic encephalomyelitis, hindleg paralysis; assay type: in vivo, rat (female Lewis); conditions: 0.3 mg/kg/day, p.o.
Procedure: EAE is induced in Female (Charles River) Lewis rats by a single intradermal injection of 0.1 ml of an encephalitogenic emulsion consisting of equial parts of a 50% w/v homogenate of guinea pig spinal cord and mid-brain in 0.5% aqueous phenol and Freund's complete adjuvant (4 mg/ml killed, dried M. butyricum) into a hindpaw (left) footpad. […] Any animal which becomes paralyzed during the course of the experiment is considered to have developed EAE whether or not the paralysis is permanent. Test compounds are administered daily beginning on the day of injection, for 19 days, exclusive of days 5, 6 12 and 13. Drug activity is determined by comparing the indicidence of EAE (paralysis) of the treated group with a control (vehicle) group. The level of significant difference between the treated groups and control groups is determined by a Chi-square test using a 2×2 contingency table. Body weight changes from day 0 are also statistically compared to the control group using a Student "t" test.

rheumatoid arthritis = conditions: preliminary observation; cited from earlier work
[7] = system: LTB4 and 5-HETE production; conditions: in vitro; cited from earlier work
[8] = 25 mg/kg, p.o., pretreated at 2 hrs

**Q.** Which “Area of infarction, in words” value [1] does the source give for `NC1=NN(c2cccc(C(F)(F)F)c2)CC1` [BW755-C] here?
**A.** Its value is “reduced”.

**Q.** With `CC(C(=O)O)c1ccc2oc(-c3ccc(Cl)cc3)nc2c1` (stereo not drawn) [Benoxaprofen] as the compound, how does the “Effect on psoriasis, in words” value (psoriasis) read?
**A.** The value was “promising effect”.

**Q.** What about the “Lipoxygenase inhibitory activity, in words” value (lipoxygenase) of the same compound?
**A.** Its value is “in vitro lipoxygenase inhibitory activity”.

**Q.** What does the source list for `Fc1ccc(-c2c(-c3ccncc3)nc3n2CCS3)cc1` [Compound 12]?
**A.** inhibition in vivo at 50 mg/kg ([2]; 50 mg/kg s.c. or i.p.): 58%; IC50 [3]: 17 µM; IC50, LTC4 production [4]: NS

**Q.** Which inhibition in vivo at 50 mg/kg ([2]; 50 mg/kg s.c. or i.p.) does the source give for `CCNc1ccc(-c2nc3n(c2-c2ccc(NCC)cc2)CCS3)cc1` [Compound 17] here?
**A.** Its inhibition in vivo at 50 mg/kg is 38%.

**Q.** And the IC50 [3]?
**A.** Its IC50 is 0.1 µM.

**Q.** What about the IC50 [4] of the same compound?
**A.** The IC50 was 1.2 µM.

**Q.** For `COc1ccc(-c2nc3n(c2-c2ccncc2)CCS3)cc1` [Compound 18], which inhibition in vivo at 50 mg/kg ([2]; po, 50 mg/kg p.o.) is on record?
**A.** Its inhibition in vivo at 50 mg/kg is 40%.

**Q.** What about the IC50 [3] of the same compound?
**A.** Its IC50 is 1.9 µM.

**Q.** And the IC50 [4]?
**A.** The IC50 was 9.9 µM.

**Q.** Which IC50 [3] does the source give for `Fc1ccc(-c2nc3n(c2-c2ccc(F)cc2)CCS3)cc1` [Compound 26] here?
**A.** The IC50 was over 10 µM.

**Q.** What about the IC50 (5-Lipoxygenase) of the same compound?
**A.** The IC50 was over 10 µM.

**Q.** And the inhibition at 10 µM (5-Lipoxygenase; read-out: inhibition of 5-HETE at 10 μM, 10 μM, Table 8A footnote)?
**A.** Its inhibition at 10 µM is 46%.

**Q.** Which IC50 (5-Lipoxygenase) does the source give for `FC(F)(F)c1ccc(-c2nc3n(c2-c2ccc(C(F)(F)F)cc2)CCS3)cc1` [Compound 27] here?
**A.** Its IC50 is 28 µM.

**Q.** For `[O-][S+]1CCn2c1nc(-c1ccc(F)cc1)c2-c1ccncc1` (stereo not drawn) [Compound 28, 5-(4-pyridyl)-6-(4-fluorophenyl)-2,3-dihydroimidazo[2,1-b]thiazole-S-oxide], which inhibition in vivo at 50 mg/kg ([2]; 50 mg/kg s.c. or i.p.) is on record?
**A.** The inhibition in vivo at 50 mg/kg was 69%.

**Q.** And the IC50 [3]?
**A.** Its IC50 is 1000 µM.

**Q.** What about the IC50 [4] of the same compound?
**A.** The IC50 was 0.5 µM.

**Q.** Which inhibition in vivo at 50 mg/kg ([2]; po, 50 mg/kg p.o.) does the source give for `O=S1(=O)CCn2c1nc(-c1ccc(F)cc1)c2-c1ccncc1` [Compound 29, 5-(4-pyridyl)-6-(4-fluorophenyl)-2,3-dihydroimidazo[2,1-b]thiazole-S-dioxide] here?
**A.** The inhibition in vivo at 50 mg/kg was 67%.

**Q.** And the IC50 [3]?
**A.** The IC50 was over 100 µM.

**Q.** What about the IC50 [4] of the same compound?
**A.** The IC50 was 0.5 µM.

**Q.** What does the source list for `C[C@@H]1C[C@H]2[C@@H]3CCC4=CC(=O)C=C[C@]4(C)[C@@]3(F)[C@@H](O)C[C@]2(C)[C@@]1(O)C(=O)CO` [Dexamethasone, reference compound]?
**A.** PMN infiltration, result in words [5]: effective; % Change (ear thickness) [2, 8]: -35%; Increase in Ear Thickness at 1 Hour [2, 8]: 18.2 ± 4.1 × 10-3 cm; Mouse ear edema, result in words ([2]; mouse, in vivo): only moderately effective

**Q.** Which “Hindleg paralysis - cumulative incidence, day 9 to 13” value [6] does the source give for `CN(Cc1cnc2nc(N)nc(N)c2n1)c1ccc(C(=O)N[C@@H](CCC(=O)O)C(=O)O)cc1` [Methotrexate] here?
**A.** The value was 0/11.

**Q.** What about the “Hindleg paralysis - cumulative incidence, day 14 to 18” value [6] of the same compound?
**A.** The value was 0/11.

**Q.** What does the source list for `O=C(O)c1cc(/N=N/c2ccc(S(=O)(=O)Nc3ccccn3)cc2)ccc1O` [Sulfasalazine]?
**A.** Efficacy in rheumatoid arthritic patients, in words (rheumatoid arthritis): efficacy, including remission; Inhibition of LTB4 and 5-HETE production, in words [7]: inhibit LTB4
